Measurements from patent EP0382636A1, “Pyrimidine derivatives, 2-[4-(alpha-heteroaryl-alpha-aryl-(alpha-alkyl)-methoxy)-butyl)-1-piperazinyl], with a serotoninergical activity” (LABORATORIOS DEL DR. ESTEVE, S.A., priority 1989, dated 1990).

Target: T1, récepteurs 5-HT 1A (Homo sapiens, UniProt P08908)
T1 sequence (P08908 1-422): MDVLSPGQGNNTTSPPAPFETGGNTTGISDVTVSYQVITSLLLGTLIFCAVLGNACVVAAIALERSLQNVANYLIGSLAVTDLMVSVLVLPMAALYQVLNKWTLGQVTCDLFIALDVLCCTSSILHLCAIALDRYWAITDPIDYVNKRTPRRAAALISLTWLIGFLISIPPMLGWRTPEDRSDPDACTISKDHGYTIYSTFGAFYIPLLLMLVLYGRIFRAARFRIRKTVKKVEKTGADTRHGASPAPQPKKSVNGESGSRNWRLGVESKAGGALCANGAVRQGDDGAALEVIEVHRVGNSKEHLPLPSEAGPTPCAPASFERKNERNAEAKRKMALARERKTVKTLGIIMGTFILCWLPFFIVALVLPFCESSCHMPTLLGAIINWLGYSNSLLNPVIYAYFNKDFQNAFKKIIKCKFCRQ
Assay: 5-HT 1A receptor binding (radioligand displacement)
Settings: specific binding to 5-HT 1A receptors; test concentration not given; method cited from M. Hapon, Brain Receptor Methodologies
Source text: L'activité de certains composés sur le système nerveux central a été étudiée et plus précisément leur activité sérotoninergique, par leur union spécifique aux récepteurs 5-HT 1A. TABLEAU II

| Compound | Binding 5-HT-1A déplacement (%) |
| --- | --- |
| O=C1CC2(CCCC2)CC(=O)N1CCCCN1CCN(c2ncccn2)CC1 [Buspirone, reference compound] | 99,1% |
| Cn1ccnc1C(OCCCCN1CCN(c2ncccn2)CC1)c1ccc(Cl)cc1 (centres unmarked) [Exemple 1] | 94,7% |
| Cn1ccnc1C(C)(OCCCCN1CCN(c2ncccn2)CC1)c1ccc(Cl)cc1 (centres unmarked) [Exemple 2] | 98,6% |
| CCCCn1ccnc1C(C)(OCCCCN1CCN(c2ncccn2)CC1)c1cccc(C(F)(F)F)c1 (centres unmarked) [Exemple 3] | 97,6% |
| Cn1ccnc1C(C)(OCCCCN1CCN(c2ncccn2)CC1)c1cccc(C(F)(F)F)c1 (centres unmarked) [Exemple 4] | 98,1% |
| CCCCn1ccnc1C(OCCCCN1CCN(c2ncccn2)CC1)c1ccc(Cl)cc1 (centres unmarked) [Exemple 5] | 91,5% |
| CCCCn1ccnc1C(OCCCCN1CCN(c2ncccn2)CC1)c1cccc(C(F)(F)F)c1 (centres unmarked) [Exemple 6] | 94,6% |
| Cn1ccnc1C(OCCCCN1CCN(c2ncccn2)CC1)c1cccc(C(F)(F)F)c1 (centres unmarked) [Exemple 7] | 98,3% |
| Cn1nccc1C(OCCCCN1CCN(c2ncccn2)CC1)c1ccc(Cl)cc1 (centres unmarked) [Exemple 8] | 95,0% |
| Cn1nccc1C(C)(OCCCCN1CCN(c2ncccn2)CC1)c1ccc(Cl)cc1 (centres unmarked) [Exemple 9] | 95,0% |
| O=C1c2ccccc2S(=O)(=O)N1CCCCN1CCN(c2ncccn2)CC1 [Ipsapirone, reference compound] | 99,6% |
